Reference: patent publication US11814407B2, “Multiple coupling and oxidation method” (Roche Innovation Center Copenhagen A/S, priority 2017, dated 2023)
“Also recorded” adds a separate entry of the source.

What was measured:
[1] = Solubility of oxazaphospholidine phosphoramidite monomers in solvent, visual examination; assay type: physicochemical; conditions: for Solubility over 24 hours in MeCN with addition of pyridine: MeCN + 2.5% pyridine; for Solubility after 24 hours in MeCN: MeCN alone
Method: To a 1.5 mL vial was added 0.013 mmol of amidite after which the solid material was dissolved in 0.13 mL of solvent. Hereafter, the vial was capped, vortexed, and finally left at room temperature for 24 hours. Then, the dissolved material was visually examined regarding the solubility (FIG. 1). If the solution appeared cloudy or otherwise non-homogenous the solubility was set to “no”. If the solution appeared completely homogenous the solubility was set to “yes” (examination repeated after 24 hours).
Solubility of the following monomers was determined as per example 7.

[2] = Stability of amidite solutions by HPLC-MS (UV 254 nm, normalised to 0 hours); assay type: physicochemical
Method: Stability Determination Method: To complete the analysis the stability of the amidite was investigated using an Agilent 1100 series HPLC-MS with a gradient from 80% A (1% NH4OH in H2O) to 100% B (20% A in MeCN) and a Waters Xterra MS C18 2.1×100 mm column. The mass and UV peak of the mother compound was identified at 0 hours and at 24 hours. Hereafter, the relative stability compared to other by-products was reported by integrating the UV chromatogram (254 nm) and normalizing the area to the chromatogram recorded at 0 hours (FIG. 2).
To a 1.5 mL vial was added 0.013 mmol of amidite after which the solid material was dissolved in 0.13 mL of solvent (with and without Et3N, approximately 5-10 eq). Hereafter, the vial was capped, vortexed, and finally left at room temperature for 24 hours. To investigate the stability of the amidite an Agilent 1100 series HPLC-MS with a gradient from 80% A (1% NH4OH in H2O) to 100% B (20% A in MeCN) and a Waters Xterra MS C18 2.1×100 mm column was used. The mass and UV peak of the mother compound was identified at 0 hours and at 24 hours. Hereafter, the relative stability compared to other by-products was reported. This was again repeated after 48 hours.

## COc1ccc(C(OCC2OC(n3cnc4c(NC(=O)c5ccccc5)ncnc43)CC2OP2OC(c3ccccc3)C3CCCN32)(c2ccccc2)c2ccc(OC)cc2)cc1 [D-DNA A]
[1]
  Solubility over 24 hours in MeCN with addition of pyridine: the solubility of the monomer is preserved
  Solubility after 24 hours in MeCN: not soluble

## COc1ccc(C(OCC23COC(C(n4cnc5c(NC(=O)c6ccccc6)ncnc54)O2)C3OP2OC(c3ccccc3)C3CCCN32)(c2ccccc2)c2ccc(OC)cc2)cc1 [L-LNA A]
[2]; MeCN + Et3N (approximately 5-10 eq), after 24 hours
  Stability in solution: completely stable
[2]; MeCN + Et3N (approximately 5-10 eq), after 48 hours
  Stability in solution: the majority of the L-LNA A is preserved
[2]; MeCN only, after 24 hours, room temperature
  Stability in solution: most of the L-LNA A was degraded
[2]; MeCN only, after 48 hours, room temperature
  Stability in solution: completely degraded

## COc1ccc(C(OCC2OC(n3cnc4c(NC(=O)c5ccccc5)ncnc43)CC2OP2OC(c3ccccc3)C3CCCN32)(c2ccccc2)c2ccc(OC)cc2)cc1 [L-DNA A]
[1]
  Solubility over 24 hours in MeCN with addition of pyridine: kept in solution; also recorded: the solubility of the monomer is preserved
  Solubility after 24 hours in MeCN: not sufficient to keep the monomer in solution; also recorded: not soluble

## COc1ccc(C(OC[C@@]23CO[C@@H]([C@H](n4cnc5c(=O)[nH]c(NC(=O)C(C)C)nc54)O2)[C@@H]3O[P@]2O[C@H](c3ccccc3)[C@@H]3CCCN32)(c2ccccc2)c2ccc(OC)cc2)cc1 [L-LNA-G-iBu]
[1]; 12 different solvents
  Solubility in all solvents investigated: soluble in all solvents investigated
[1]; 24 h, MeCN, 0.013 mmol amidite in 0.13 mL solvent, room temperature
  Soluble after: 24 h MeCN: no

## COc1ccc(C(OCC23COC(C(n4cnc5c(=O)[nH]c(N=CN(C)C)nc54)O2)C3OP2OC(c3ccccc3)C3CCCN32)(c2ccccc2)c2ccc(OC)cc2)cc1 [L-LNA G-DMF]
[1]; MeCN, MeCN:DCE, MeCN:Tol, MeCN:acetone, Dioxane, THF
  Solubility in solvents: unsoluble
[1]; MeCN:DCM, DMF, DMSO, NMP, DCM, DCE, Toluene
  Solubility in solvents: soluble
[1]; acetonitrile solvents
  Solubility in acetonitrile solvents: poorly soluble
[2]; DCM (best solvent), 24 hours, room temperature
  Amidite left after 24 hours: 10%
[2]; MeCN:DCM, DMF, DMSO, NMP, DCM, DCE, Toluene, 24 hours
  Stability in the solvents where the monomer is soluble: tremendous instability

## COc1ccc(C(OCC23COC(C(n4cnc5c(NC(=O)c6ccccc6)ncnc54)O2)C3OP2OC(c3ccccc3)C3CCCN32)(c2ccccc2)c2ccc(OC)cc2)cc1 [D-LNA A]
[1]
  Solubility over 24 hours in MeCN with addition of pyridine: the solubility of the monomer is preserved
  Solubility after 24 hours in MeCN: not soluble
